Results taken from patent publication US9332770B2, “Anti-listerial mixed culture and method for producing cheese” (CSK Food Enrichment B.V., priority 2011, dated 2016).

Tests used:
[1] = system: Lactobacillus plantarum LMG P-26358; test: growth profile in MRS broth substituted with various sugars; format: cell-based; conditions: for GT (generation time) / μmax (specific growth rate): 2% sugar in the MRS broth; for ability of Lb. plantarum LMG P-26358 to grow on the sugar: sugar acidification profiles
L. innocua = test: frequency of bacteriocin resistance development; format: cell-based, Listeria innocua; conditions: 2560 au/ml bacteriocin (purified preparation) and/or 320 au/ml nisin
Protocol: The frequency of development of resistance in L. innocua to 2560 au/ml of the bacteriocin produced by Lb. plantarum LMG P-26358 (purified preparation) was calculated at 1.13×10^−3. […] The resistant colonies were picked off and tested for their sensitivity to the bacteriocin produced by Lb. plantarum LMG P-26358.

O=C[C@H](O)[C@@H](O)[C@H](O[C@@H]1O[C@H](CO)[C@@H](O)[C@H](O)[C@H]1O)[C@H](O)CO [Cellobiose]
GT (generation time) [1]: 90 min
μmax (specific growth rate) [1]: 0.2018 OD600 · hour^−1
ability of Lb. plantarum LMG P-26358 to grow on the sugar [1]: capable of growing

O=C(CO)[C@@H](O)[C@H](O)[C@H](O)CO [Fructose]
GT (generation time) [1]: 104 min
μmax (specific growth rate) [1]: 0.174 OD600 · hour^−1
ability of Lb. plantarum LMG P-26358 to grow on the sugar [1]: capable of growing

O=C[C@H](O)[C@@H](O)[C@@H](O)[C@H](O)CO [Galactose]
GT (generation time) [1]: 123 min
μmax (specific growth rate) [1]: 0.1473 OD600 · hour^−1
ability of Lb. plantarum LMG P-26358 to grow on the sugar [1]: capable of growing

OC[C@H]1O[C@@H](O[C@H]2[C@H](O)[C@@H](O)C(O)O[C@@H]2CO)[C@H](O)[C@@H](O)[C@H]1O (stereo partly shown) [Lactose]
GT (generation time) [1]: 100 min
μmax (specific growth rate) [1]: 0.1815 OD600 · hour^−1
ability of Lb. plantarum LMG P-26358 to grow on the sugar [1]: can grow efficiently

OC[C@H]1O[C@H](O[C@H]2[C@H](O)[C@@H](O)[C@H](O)O[C@@H]2CO)[C@H](O)[C@@H](O)[C@@H]1O [Maltose]
GT (generation time) [1]: 79 min
μmax (specific growth rate) [1]: 0.2277 OD600 · hour^−1
ability of Lb. plantarum LMG P-26358 to grow on the sugar [1]: capable of growing

OC[C@H]1O[C@H](OC[C@H]2O[C@H](O[C@]3(CO)O[C@H](CO)[C@@H](O)[C@@H]3O)[C@H](O)[C@@H](O)[C@@H]2O)[C@H](O)[C@@H](O)[C@H]1O [Raffinose]
GT (generation time) [1]: 246 min
μmax (specific growth rate) [1]: 0.0734 OD600 · hour^−1
ability of Lb. plantarum LMG P-26358 to grow on the sugar [1]: unable to metabolise

OC[C@H]1O[C@@](CO)(O[C@H]2O[C@H](CO)[C@@H](O)[C@H](O)[C@H]2O)[C@@H](O)[C@@H]1O [Sucrose]
GT (generation time) [1]: 86 min
μmax (specific growth rate) [1]: 0.2088 OD600 · hour^−1
ability of Lb. plantarum LMG P-26358 to grow on the sugar [1]: capable of growing

OC[C@H]1O[C@H](O[C@H]2O[C@H](CO)[C@@H](O)[C@H](O)[C@H]2O)[C@H](O)[C@@H](O)[C@@H]1O [Trehalose]
GT (generation time) [1]: 92 min
μmax (specific growth rate) [1]: 0.1963 OD600 · hour^−1
ability of Lb. plantarum LMG P-26358 to grow on the sugar [1]: capable of growing

nisin
frequency of development of resistance in L. innocua (L. innocua): 2.16×10^−2
